Here are results for 3 compounds from patent US20080161246A1, “Cytochrome P450 Oxidase Inhibitors and Uses Thereof” (ABBOTT LABORATORIES, priority 2006, published 2008).

The series concerns the target T1, human microsomes containing CYP3A4 (Homo sapiens, UniProt P08684).
T1 construct: human microsomes containing CYP3A4; from tissue
Put plainly: Protection of lopinavir from metabolism by human microsomes containing CYP3A4. It counts as biochemical. The settings on record: unmetabolized lopinavir after incubation with human microsomes containing CYP3A4; for % LPV Remaining (0.4 μM): compound at 0.4 μM; for % LPV Remaining (4 μM): compound at 4 μM. The protocol:
The pharmacokinetics boosting effects of the compounds of the present invention were evaluated by measuring the compounds' protective effects on the metabolism of lopinavir, an HIV protease inhibitor. Lopinavir were mixed with human microsomes containing CYP3A4 in the presence of a compound of the invention. […] Significant pharmacokinetics boosting effects were also observed for some compounds at 0.4 μM (“% LPV Remaining (0.4 μM)”).

T1 sequence (P08684 whole entry): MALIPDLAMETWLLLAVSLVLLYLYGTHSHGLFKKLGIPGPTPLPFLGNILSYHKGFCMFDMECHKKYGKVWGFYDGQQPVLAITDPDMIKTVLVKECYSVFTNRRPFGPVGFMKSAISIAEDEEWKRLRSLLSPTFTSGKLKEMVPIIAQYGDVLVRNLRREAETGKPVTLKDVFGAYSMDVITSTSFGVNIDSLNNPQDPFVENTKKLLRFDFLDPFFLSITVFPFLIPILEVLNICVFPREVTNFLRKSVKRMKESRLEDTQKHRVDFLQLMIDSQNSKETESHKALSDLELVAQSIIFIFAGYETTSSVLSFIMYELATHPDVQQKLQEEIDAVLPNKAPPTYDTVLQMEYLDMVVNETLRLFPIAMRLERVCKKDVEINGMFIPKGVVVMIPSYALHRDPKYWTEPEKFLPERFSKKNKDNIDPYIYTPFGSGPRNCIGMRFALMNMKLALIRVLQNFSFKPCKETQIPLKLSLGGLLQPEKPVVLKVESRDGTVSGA

On to `O=C(N[C@@H](Cc1ccccc1)C(=O)N(Cc1ccccc1)Cc1ccccc1)OCc1cncs1` [N,N-dibenzyl-N-[(1,3-thiazol-5-ylmethoxy)carbonyl]-L-phenylalaninamide], for which the “% LPV Remaining (0.4 μM)” value turned out to be 1.9% and the “% LPV Remaining (4 μM)” value is given as 78%.

With `CC(C)CN(CC(C)C)C(=O)[C@H](Cc1ccccc1)NC(=O)OCc1cncs1` [N,N-diisobutyl-N-[(1,3-thiazol-5-ylmethoxy)carbonyl]-L-phenylalaninamide], the “% LPV Remaining (0.4 μM)” value is recorded as 2% and the “% LPV Remaining (4 μM)” value was determined as 77%.

Take `O=C(NC(Cc1ccccc1)C(=O)N(CCc1ccccc1)Cc1ccccc1)OCc1cncs1` [N-benzyl-N-(2-phenylethyl)-N-[(1,3-thiazol-5-ylmethoxy)carbonyl]-L-phenylalaninamide]: the “% LPV Remaining (0.4 μM)” value stood at 1.8% and the “% LPV Remaining (4 μM)” value worked out at 83%.
